The source of these data is paper PMC9780203, “Synthesis, molecular docking, and in-vitro studies of pyrimidine-2-thione derivatives as antineoplastic agents via potential RAS/PI3K/Akt/JNK inhibition in breast carcinoma cells” (Scientific Reports, 2022).

Each structure is given as a SMILES string. “Also recorded” adds a separate entry of the source.

For one series, the system named is p53. Description: Immunoblotting of p53 in MCF-7. Type of series: cell-based, human. Conditions: MCF-7, IC50 dose, 48 h, immunoblot, vs untreated cells. The protocol:
(§1) Western blot analysis was conducted according to[37]. The ReadyPrepTM protein extraction kit (total protein) provided by Bio-Rad Inc (Cat #163-2086) was used to isolate proteins according to the manufacturer’s instructions. The Bradford protein assay kit (SK3041) from Bio Basic Inc. (Markham Ontario L3R 8T4 Canada) was then used to perform quantitative protein analysis. Afterward, a 20 μg protein concentration of each sample was subjected to 12% sodium dodecyl sulfate–polyacrylamide gel electrophoresis (SDS-PAGE), followed by transfer to polyvinylidene fluoride (PVDF) membranes (BioRad). Polyacrylamide gels were performed using the TGX Stain-Free™ FastCast™ Acrylamide Kit (SDS-PAGE) provided by Bio-Rad Laboratories Inc. (Cat # 161-0181). The SDS-PAGE TGX Stain-Free FastCast was prepared according to the manufacturer's instructions. The membrane was blocked in tris-buffered saline with Tween 20 (TBST) buffer and 3% bovine serum albumin (BSA) for 1 h at room temperature followed by probing with primary antibodies against phospho-RAS-GRF1 (Ser916) (1: 1000, Cell Signaling Technology, #3321), phospho-SAPK/JNK (Thr183/Tyr185) (1:1000, Cell Signaling Technology, #9251), p53 (1:1000, Cell Signaling Technology, #9282) and β-actin (1:3000, Cell Signaling Technology, #8457). […]
(Immunoblotting shows a protein as a band on a membrane.)

The subject of series [1] is phospho-SAPK/JNK (Thr183/Tyr185). Description: Immunoblotting of p-JNK in MCF-7. The format is cell-based, human. Conditions: MCF-7, IC50 dose, 48 h, western blot, vs untreated cells. As for the experimental part:
as §1

Series [2] relates to normal human amniotic WISH cells. Description: MTT cell viability, normal WISH cells. The settings on record: 48 h, mean ± SE, read-out: IC50, normal cell line (WISH). The format is cell-based. The protocol:
(§2) 3-(4,5-dimethylthiazol-2-yl)-2,5-diphenyltetrazolium bromide (MTT) assay was used to measure cell viability according to a prior study. The cells were grown in 96-well plates at a density of 1 × 10^4 cells/well, treated for 48 h with varied 5a (0–200 µM) or the reference drug DOX (0–100 µM) dosages, and then exposed to analysis. The culture medium was taken out after 48 h of incubation, and the cells were given two gentle washes with 1× ice-cold phosphate-buffered saline (PBS). The MTT (10×) has been diluted to a 1× solution in the culture medium (1 volume 10× MTT in 9 volumes medium) and 200 μl was added to each well. The microplate has been kept in a cell culture incubator at 37 °C for 4 h. Afterthat, 180 μl of the MTT solution was taken out and 100 μl of DMSO was put to each well. The microplate was incubated for 15 min with shaking at room temperature. The absorbance of each well was ultimately measured at 630 nm using a Model 680 microplate reader (Bio-Rad, CA, USA)[33].

Series [3] concerns PANC-1 pancreatic cancer cells. Description: MTT cell viability, PANC-1. The settings on record: Homo sapiens, 48 h, mean ± SE. Type of series: cell-based. As for the experimental part: as §2
Series [4] deals with phospho-RAS-GRF1 (Ser916). Description: Immunoblotting of p-RAS in MCF-7. The format is cell-based, human. Conditions: MCF-7, IC50 dose, 48 h, western blot, vs untreated cells. As for the experimental part:
as §1

Series [5] deals with MCF-7 cells. Description: Cell cycle analysis by flow cytometry (PI). Conditions: MCF-7, IC50 dose, 48 h; untreated control 8.6%. The format is cell-based, human. The protocol: Using flow cytometry, cell cycle analysis was carried out via a documented method of[35] with a few changes. After trypsinization, the MCF-7 cells were centrifuged at 4500 rpm for 5 min, followed by two washings, resuspension in 1× PBS, fixation with ice-cold absolute ethanol, and incubation at 20 °C for 24 h. Following two PBS washes, the cells were then resuspended in (0.05 mg/mL) propidium iodide (PI)[32] solution containing 50 µL (0.2 mg/mL) of RNase A, and 0.1% v/v Triton X-100 in PBS. Then, the cells were incubated at room temperature for 30–60 min in the dark. Finally, the pellet was washed with 1⤫ PBS and resuspended in 300 µL 1× PBS, and subjected to analysis on Accuri C6 flow cytometer (Becton Dickinson, Franklin Lake, BD, USA) equipped with PE X FL2 channels.

Series [6] has as its system MDA-MB-231 breast cancer cells. Description: MTT cell viability, MDA-MB-231. The format is cell-based. The settings on record: Homo sapiens, 48 h, mean ± SE. The protocol: as §2
The subject of another series is p21. Description: RT-PCR analysis of p21 gene expression in MCF-7. The format is cell-based, human. The settings on record: MCF-7, IC50 dose, 48 h, vs untreated cells. As for the experimental part:
(§3) The total RNA was isolated from the MCF-7 cells using Trizol (Cat# R2072, ZYMO […] CORP. USA) according to the manufacturer’s instructions. Its quantity and quality were assessed using a Beckman dual spectrophotometer. The cDNA was performed using a miScript Reverse Transcription Kit (QIAGEN) Kit (218061) and a miScript SYBR Green PCR Kit was used for mRNA detection with quantification (218073). Reverse transcription was running on a StepOne system (Applied Biosystems, Foster City, CA, USA) in a total volume of 10 μL containing 5 μL of the miScript RT enzyme and […]. Real-time PCR for mRNA was performed on the same system in a total volume of 20 μL containing 10 μL of a 2× QuantiTect® SYBR Green PCR Master Mix and 10 ng of the cDNA template. The PCR thermal cycling conditions for the mRNA were 2 min at 50 °C, 30 s at 95 °C, 40 cycles of 95 °C for 5 s, and 60 °C for 34 s. The expression of the mRNA target genes was normalized to the expression of human GAPDH quantified using the 2^−ΔΔCt method. Table 1 contains a list of the primers used in the research.

Series [7] relates to Caco-2 colorectal cancer cells. Description: MTT cell viability, Caco-2. The settings on record: Homo sapiens, 48 h, mean ± SE. The format is cell-based. The protocol:
as §2

Series [8] concerns MCF-7 cells. Description: Cell morphology by inverted light microscope. Type of series: cell-based, human. Conditions: IC50 dose, 48 h. As for the experimental part: Using an inverted light microscope (Olympus, USA), the morphological alterations of the treated and untreated cells were evaluated and documented after 48 h of incubation.
The next series has as its system Akt. Description: RT-PCR analysis of Akt gene expression in MCF-7. The format is cell-based, human. The settings on record: MCF-7, IC50 dose, 48 h, vs untreated cells. As for the experimental part: as §3
For series [9], the system named is MCF-7 breast cancer cells. Description: MTT cell viability, MCF-7. The format is cell-based. Conditions: Homo sapiens, MCF7, 48 h, mean ± SE. As for the experimental part: as §2
For a further series, the system named is PI3K. Description: RT-PCR analysis of PI3K gene expression in MCF-7. Type of series: cell-based, human. Conditions: MCF-7, IC50 dose, 48 h, vs untreated cells. As for the experimental part:
as §3

A word on the melting point: it is the temperature of the solid-liquid transition. On to `COc1cc(/C=C/C(=O)C2=C(C)NC(=S)NC2c2cccs2)ccc1O` (stereo not shown) [2b, [E]-3-(4-hydroxy-3-methoxyphenyl)-1-(6-methyl-4-(thiophen-2-yl)-2-thioxo-1,2,3,4-tetrahydropyrimidin-5-yl)prop-2-en-1-one], for which the melting point turned out to be 258 °C.

One may read the IC50 as the concentration needed to halve the response being measured. On to `COc1cc(C2CC(C3=C(C)NC(=S)NC3c3ccc(N(C)C)cc3)=NN2c2ccccc2)ccc1O` (stereo not shown) [compound 5a, 4-(4-(dimethylamino)phenyl)-5-(5-(4-hydroxy-3-methoxyphenyl)-1-phenyl-4,5-dihydro-1H-pyrazol-3-yl)-6-methyl-3,4-dihydropyrimidine-2(1H)-thione], for which the p53 protein expression result with p53 is given as “significant elevation”. Further, the p-JNK protein expression result in series [1] was “significant reduction”. The IC50 in [2] is 180 ± 2.7 µM; in series [3], 23.6 ± 2.4 µM; in [6] it was 6.78 ± 2.2 µM; in [7], 14.8 ± 2.5 µM; in series [9], 2.62 ± 1.6 µM. Further, the “levels of p-RAS proteins” value in series [4] is given as “significantly decreased”. Moreover, the “Percentage of cells at sub-G0/G1” value in the series on MCF-7 cells [5] came to 48.5%. The p21 gene expression result with p21 is recorded as “significantly upregulated”. Besides, the “Morphological features of MCF-7 cells” value in the series with MCF-7 cells [8] is “detectable morphological signs of apoptosis”. Besides, in the series on Akt, the “mRNA transcript level of Akt” value is reported as “significantly reduced; also recorded: downregulated”. In addition, the “mRNA transcript level of PI3K” value with PI3K is “significantly reduced; also recorded: downregulated”.

As to `COc1cccc2c1C(=O)c1c(O)c3c(c(O)c1C2=O)C[C@@](O)(C(=O)CO)C[C@@H]3O[C@H]1C[C@H](N)[C@H](O)[C@H](C)O1` [DOX, Doxorubicin, reference compound], the 50% inhibitory concentration (IC50) amounted to 24.5 ± 2.1 µM in series [2] and 2.26 ± 1.4 µM in [9].
